From PubChem BioAssay AID1949 (Southern Research Institute, 2009)
Converted amounts (≈) assume the structure as drawn. Results filed as inconclusive are left out. The source made the active and inactive calls. The rule behind the calls is not given here.

Test system: M. tuberculosis H37Rv growth inhibition
Assay: Confirmatory growth inhibition assay against Mycobacterium tuberculosis H37Rv, potency (AID 1949);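 note: bacteria grown 7 days with compound before Alamar blue readout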

Compound	IC50
Clc1ccc(OCCCCn2ccnc2)c(Br)c1	1.51 µg/mL (≈ 4.58 µM)
O=[N+]([O-])c1cccc(S(=O)(=O)Nc2cc(Br)c(O)c3ccccc23)c1	5.32 µg/mL (≈ 12.6 µM)
COc1ccc(Cl)cc1/C=C/[N+](=O)[O-]	5.64 µg/mL (≈ 26.4 µM)
Clc1ccc(OCCOCCNCc2ccccc2)c2ccccc12	6.11 µg/mL (≈ 17.2 µM)
O=C(CSc1nnc(-c2ccncc2)o1)Nc1ccc(Cl)cn1	5.59 µg/mL (≈ 16.1 µM)
COc1ccc2c(c1)CCC1Sc3ccccc3N=C21 (centres undefined)	1.43 µg/mL (≈ 5.08 µM)
NC(N)=Nc1nc(-c2ccccc2)c2cc(F)ccc2n1	7.61 µg/mL (≈ 27.1 µM)
Nc1ccc2nc(SCC(=O)Nc3cccc(Cl)c3)sc2c1	> 50 µg/mL (inactive)
CCOCC(=O)Nc1sc2c(c1C(=O)OCC)CCCC2	> 50 µg/mL (inactive)
CCCCOc1ccc(S(=O)(=O)Nc2ccc(Cl)cc2)cc1	4.09 µg/mL (≈ 12 µM)
CCOC(=O)c1cnc2c(C)c(C)ccc2c1NCc1ccco1	3.91 µg/mL (≈ 12.1 µM)
O=C(NC(=S)N1CCc2ccccc21)c1ccccc1	1.45 µg/mL (≈ 5.14 µM)
Cc1c(OC(=O)c2cccc([N+](=O)[O-])c2)ccc2c1CCCC2	2.64 µg/mL (≈ 8.48 µM)
N#Cc1c(SCCN2CCCC2)nc2c(c1C(F)(F)F)CC(c1ccccc1)CC2 (centres undefined)	47.4 µg/mL (≈ 110 µM)
Cc1ccc(-c2[nH]c(-c3ccc([N+](=O)[O-])cc3)nc2-c2ccccc2)cc1	7.13 µg/mL (≈ 20.1 µM)
CC(C)(C)c1ccc(OCC(=O)Nc2ccc(F)c(Cl)c2)cc1	13.7 µg/mL (≈ 40.9 µM)
CCOC(=O)CSc1nc(C#N)c(SCC(=O)OCC)s1	2.29 µg/mL (≈ 6.61 µM)
COc1ccc(-c2csc(Nc3ccc(S(N)(=O)=O)cc3)n2)cc1	3.73 µg/mL (≈ 10.3 µM)
COc1ccc(C2CC(=O)Nc3ccc4ccccc4c32)c(I)c1O (centres undefined)	3.48 µg/mL (≈ 7.82 µM)
CC(C)(C)c1cc(Cl)c(O)c(NC(=S)NC(=O)c2cncc(Br)c2)c1	< 0.1 µg/mL
Cc1cccc(Nc2cc(Cl)c3nonc3c2[N+](=O)[O-])c1C	1.28 µg/mL (≈ 4.02 µM)
Cc1ccc(NCCC(=O)c2ccc([N+](=O)[O-])cc2)cc1Cl	19.6 µg/mL (≈ 61.3 µM)
CCN(CC)CCNc1nc(-c2cccc(Cl)c2)nc2ccccc12	46 µg/mL (≈ 130 µM)
CCOc1ccc2nc3cc(N)ccc3c(N)c2c1	0.81 µg/mL (≈ 3.2 µM)

Compound	IC50
COc1ccccc1C(=O)Nc1ccc2oc(-c3cccc(Cl)c3)nc2c1	> 50 µg/mL (inactive)
Cc1cc2ncn(CCOc3ccccc3C)c2cc1C	6.93 µg/mL (≈ 24.7 µM)
CCC(=O)Oc1ccc(-c2nc3ccccc3c(=O)o2)cc1	> 50 µg/mL (inactive)
Cc1cccc(OCC(O)CN2CCN(CCN3C(=O)c4cccc5cccc(c45)C3=O)CC2)c1C (centres undefined)	2.53 µg/mL (≈ 5.19 µM)
Cc1cc2ncn(CCCOc3ccccc3C)c2cc1C	4.63 µg/mL (≈ 15.7 µM)
Cc1ccc(NC(=S)c2ccccn2)cc1	0.99 µg/mL (≈ 4.34 µM)
CCOc1ccccc1C(=O)Nc1cc(Cl)ccc1O	4.22 µg/mL (≈ 14.5 µM)
COc1cc(/C=C/[N+](=O)[O-])ccc1OC(=O)c1ccco1	22.6 µg/mL (≈ 78.1 µM)
CSc1ccccc1NC(=O)c1ccc(Cl)s1	5.6 µg/mL (≈ 19.7 µM)
Cc1ccc(-n2c(=O)oc3ccc(Cl)cc3c2=O)cc1Cl	1.08 µg/mL (≈ 3.35 µM)
O=C(/C=C/c1cccc(C(F)(F)F)c1)Nc1ccc(Cl)cc1	5.09 µg/mL (≈ 15.6 µM)
O=C(CSc1ccc(Cl)cc1)Nc1ccc(Br)cn1	3.02 µg/mL (≈ 8.44 µM)
CCOC(=O)c1ccc(COC(=O)c2cccc([N+](=O)[O-])c2)cc1	1.11 µg/mL (≈ 3.37 µM)
Cc1nc2c(-c3ccccc3)c[nH]n2c(=O)c1Cc1ccccc1	> 50 µg/mL (inactive)
COc1ccc(NC(=O)C(Cc2c[nH]c3ccccc23)NC(C)=O)cc1 (centres undefined)	3.08 µg/mL (≈ 8.76 µM)
Oc1ccc(CSc2ccccc2)c2cccnc12	0.6 µg/mL (≈ 2.24 µM)
Cc1cc(NC(=O)c2ccc([N+](=O)[O-])o2)c(C)cc1I	0.46 µg/mL (≈ 1.19 µM)
COc1ccc(C)cc1NC(=O)c1ccc(Cc2ccc(C)cc2)o1	2.71 µg/mL (≈ 8.08 µM)
CSc1nsc(SCC(=O)N2CCc3ccccc32)n1	12 µg/mL (≈ 37 µM)
N#Cc1c(C(F)(F)F)cc(-c2cccnc2)nc1SCC(=O)N1CCc2ccccc2C1	> 50 µg/mL (inactive)
Cc1cccc(Nc2nc(N)nc(CN3CCN(c4cccc(Cl)c4)CC3)n2)c1	0.39 µg/mL (≈ 0.951 µM)
CCCCCn1c(NCc2ccc(N(C)C)cc2)nc2ccccc21	2.9 µg/mL (≈ 8.62 µM)
CC(C(=O)Oc1cccc2cccnc12)N1C(=O)c2ccccc2C1=O (centres undefined)	4.4 µg/mL (≈ 12.7 µM)
CC12CC3CC(C)(C1)CC(CNCc1ccccc1O)(C3)C2	2.89 µg/mL (≈ 9.65 µM)

Compound	IC50
CCOc1cc2c3c(c1)C1(C(=O)N3C(C)(C)C=C2C)C(C#N)=C(N)Oc2cc(O)ccc21 (centres undefined)	3.09 µg/mL (≈ 7.19 µM)
CCC(C)c1ccc(O)c(NC(=S)NC(=O)c2cccnc2)c1 (centres undefined)	< 0.1 µg/mL
Fc1ccc(C2=CC(c3ccc(Br)cc3)n3nnnc3N2)cc1 (centres undefined)	22.6 µg/mL (≈ 60.7 µM)
O=S1(=O)C=C(Sc2nc3ccccc3s2)c2ccccc21	< 0.1 µg/mL
COc1ccccc1N1C(=O)c2cccc3cc([N+](=O)[O-])cc(c23)C1=O	0.16 µg/mL (≈ 0.459 µM)
O=C(Nc1ccc(Br)c(Cl)c1)c1ccc(F)cc1	15.7 µg/mL (≈ 47.8 µM)
CCOc1ccc(C(=O)Nc2ccc(N3CCN(C(=O)c4cccs4)CC3)c(Cl)c2)cc1Br	0.53 µg/mL (≈ 0.966 µM)
CCOC(=O)COc1ccc2c(C)c(CC(=O)OC)c(=O)oc2c1C	7.36 µg/mL (≈ 21.1 µM)
CN1CCN(c2ccc(NC(=O)c3ccc(-c4ccc(Cl)cc4)o3)cc2)CC1	38 µg/mL (≈ 96 µM)
Nc1ncnc(Sc2nc3ccccc3s2)c1[N+](=O)[O-]	0.5 µg/mL (≈ 1.64 µM)
CCn1cc(C(=O)O)c(=O)c2cc(F)c(N3CCN(C(=S)Nc4cc(C(F)(F)F)ccc4Cl)CC3)cc21	2.99 µg/mL (≈ 5.37 µM)
Cc1ccc(NC(=O)CSc2ccc(F)cc2)cc1	12.3 µg/mL (≈ 44.9 µM)
O=C(Nc1ccc(C(F)(F)F)cc1)Nc1cccc(Cl)c1	0.2 µg/mL (≈ 0.636 µM)
CCC(C)(C)c1ccc(OCCCn2ccnc2)cc1	1.92 µg/mL (≈ 7.05 µM)
c1ccc(CNCCCOc2cccc3ccccc23)cc1	4.89 µg/mL (≈ 16.8 µM)
COc1ccc(Br)cc1C(=O)Nc1ccc(N2CCN(C)CC2)cc1	12.6 µg/mL (≈ 31.1 µM)
CC(C)(C)NCCCCOc1ccc(Cl)cc1C(C)(C)C	3.77 µg/mL (≈ 12.1 µM)
COC(=O)C(C)Sc1nnc(-c2ccc(Br)cc2)o1 (centres undefined)	0.99 µg/mL (≈ 2.88 µM)
COC(=O)COc1ccc(NC(=O)c2ccccc2Br)cc1	1.17 µg/mL (≈ 3.21 µM)
O=C(CCNc1cccc(F)c1)c1ccccc1	8.2 µg/mL (≈ 33.7 µM)
CCOC(=O)COc1ccc2c(=O)c(Oc3cnn(-c4ccccc4)c3)c(C)oc2c1	0.61 µg/mL (≈ 1.45 µM)
CN(CCOCCOc1ccc(I)cc1)Cc1ccccc1	6.75 µg/mL (≈ 16.4 µM)
CC(C)(C)C(=O)Nc1nc2c(Cl)c(Cl)ccc2s1	7.02 µg/mL (≈ 23.2 µM)
CCOc1cc(CNCCO)ccc1OCc1ccc(Cl)cc1Cl	6.03 µg/mL (≈ 16.3 µM)

Compound	IC50
Cc1cc(NS(=O)(=O)c2ccc(NC(=O)c3ccc(C(C)(C)C)cc3)cc2)no1	1.76 µg/mL (≈ 4.26 µM)
COc1ccc2nc(/C(C#N)=C\c3ccc(SC)cc3)[nH]c2c1	7.56 µg/mL (≈ 23.5 µM)
O=S(Cc1ccccc1)c1nc2ccccc2s1 (centres undefined)	3.15 µg/mL (≈ 11.5 µM)
C=CCc1cc(C)ccc1OCCCn1ccnc1	3.52 µg/mL (≈ 13.7 µM)
Cc1ccc(OCC(O)CN2CCc3ccccc3C2)c(C(C)(C)C)c1 (centres undefined)	5.9 µg/mL (≈ 16.7 µM)
CC(=O)N/C(=N/c1nc(C)cc(C)n1)Nc1ccc(C)cc1C	> 50 µg/mL (inactive)
Nc1cc(Oc2ccc(O)c(N)c2)ccc1O	6.13 µg/mL (≈ 26.4 µM)
COc1ccccc1C(=O)Oc1ccc2c(c1)C(C)CC(C)(C)N2 (centres undefined)	4.97 µg/mL (≈ 15.3 µM)
O=C(Nc1ccc(N2CCN(Cc3ccccc3)CC2)cc1)c1cccc(Cl)c1Cl	4.51 µg/mL (≈ 10.2 µM)
Cc1cc(NC(=O)CSc2nnc(-c3ccccc3Cl)o2)no1	2.43 µg/mL (≈ 6.93 µM)
Cc1ccc(OCCN2CCN(c3nc(NCc4ccco4)c4ccccc4n3)CC2)cc1	6.3 µg/mL (≈ 14.2 µM)
COc1cccc(CSc2nc3c(c(-c4ccccc4)c2C#N)CN(C)CC3)c1	22.8 µg/mL (≈ 56.9 µM)
O=C(NCc1ccccc1)c1cc2cc(Cl)cc(Cl)c2oc1=O	> 50 µg/mL (inactive)
c1ccc(Nc2nc(Nc3ccccc3)nc(N3CCNCC3)n2)cc1	3.99 µg/mL (≈ 11.5 µM)
O=C(NCc1ccc(Cl)cc1)c1ccccc1-c1ccccc1	13.2 µg/mL (≈ 41.1 µM)
CSc1ccc(/C=C/c2nc(-c3ccccc3O)n[nH]2)cc1	4.5 µg/mL (≈ 14.5 µM)
S=C(NCCc1ccc(Cl)cc1)Nc1ccc(Nc2ccccc2)cc1	2.09 µg/mL (≈ 5.47 µM)
O=C1c2cccc3cc([N+](=O)[O-])cc(c23)C(=O)N1CCO	> 50 µg/mL (inactive)
O=C(Nc1ccc(-c2nc3ccccc3c(=O)o2)cc1)c1ccccc1I	0.37 µg/mL (≈ 0.79 µM)
O=C(CSc1ccc([N+](=O)[O-])cn1)Nc1ccc2c(c1)OCO2	7.47 µg/mL (≈ 22.4 µM)
CN1CCN(c2ccc(NC(=S)NC(=O)c3cc4ccccc4o3)cc2)CC1	10.7 µg/mL (≈ 27.2 µM)
O=C(NC(=S)N1CCCC1)c1ccc(-c2ccccc2)cc1	1.43 µg/mL (≈ 4.61 µM)
CCC(C)c1ccc(OCCCCn2ccnc2)cc1 (centres undefined)	1.12 µg/mL (≈ 4.11 µM)
CCOC(=O)C1=CN(C(C)C)C=C(C(=O)OCC)C1c1cc(OC)ccc1OC	> 50 µg/mL (inactive)

Compound	IC50
CCOc1ccc(OCc2ccc(C(=O)Nc3ccc(Cl)cn3)o2)cc1	19.9 µg/mL (≈ 53.5 µM)
O=C(Nc1ccc([N+](=O)[O-])cc1)c1nc[nH]c1C(=O)NCc1ccccc1	7.92 µg/mL (≈ 21.7 µM)
CCc1ccc(C(=S)Nc2ccccc2)nc1	2.23 µg/mL (≈ 9.2 µM)
Oc1ccc(Br)cc1C1=NNC(c2ccc(F)cc2)C1 (centres undefined)	2.89 µg/mL (≈ 8.62 µM)
CCc1cc2c(=O)c(-c3ccc4c(c3)OCCO4)coc2cc1OCC(=O)OC(C)C	5.83 µg/mL (≈ 13.7 µM)
O=C(C#Cc1ccccc1)c1ccc([N+](=O)[O-])cc1	> 50 µg/mL (inactive)
CC1CCc2sc3ncnc(NCCc4ccccc4)c3c2C1 (centres undefined)	1.85 µg/mL (≈ 5.72 µM)
S=C(NCCc1c[nH]c2ccccc12)Nc1ccc(Nc2ccccc2)cc1	2.81 µg/mL (≈ 7.27 µM)
O=C(CCN1C(=O)C2C3C=CC(C3)C2C1=O)Oc1cccc2cccnc12 (centres undefined)	14.8 µg/mL (≈ 40.7 µM)
CCOC(=O)CSc1cc(C)nc2ccc(C)cc12	1.66 µg/mL (≈ 6.03 µM)
CC(C(=O)OCc1ccccc1)n1cnc2scc(-c3ccc(Br)cc3)c2c1=O (centres undefined)	1.51 µg/mL (≈ 3.22 µM)
Cn1nc(-c2ccc(N3CCCCC3)c(NC(=O)c3ccco3)c2)c2ccccc2c1=O	> 50 µg/mL (inactive)
CC(C)(C)c1cc(Cl)c(O)c(NC(=S)NC(=O)c2cccnc2)c1	< 0.1 µg/mL
Cc1nc(Nc2nc3c(c(=O)[nH]2)CCCC3)nc2c(C)cccc12	28.1 µg/mL (≈ 87.4 µM)
COC(=O)c1cc(NC(=O)Nc2cccc(Cl)c2)cc(C(=O)OC)c1	0.18 µg/mL (≈ 0.496 µM)
Cc1ccc(C(=O)NC(=S)N(C)Cc2ccccc2)cc1	2.53 µg/mL (≈ 8.48 µM)
Cc1ccc(-c2nnc(SC3=CS(=O)(=O)c4ccccc43)o2)cc1	> 50 µg/mL (inactive)
OC(COc1ccc2ccccc2c1)CN1CCCN(CC(O)COc2ccc3ccccc3c2)CC1 (centres undefined)	0.73 µg/mL (≈ 1.46 µM)
O=C(COc1ccc(Cl)cc1)NCCC12CC3CC(CC(C3)C1)C2	43.5 µg/mL (≈ 125 µM)
Cc1cccc(N2CCN(c3ncnc4sc5c(c34)CCCC5)CC2)n1	2.26 µg/mL (≈ 6.18 µM)
COc1ccc(C(=O)CCN2CCN(c3ccccc3F)CC2)cc1	5.64 µg/mL (≈ 16.5 µM)
COc1cc(NC(=O)c2cc3ccccc3o2)ccc1NC(=O)c1ccccc1Cl	2.31 µg/mL (≈ 5.49 µM)
O=S1(=O)C=CC2ON=C(c3ccc(C(F)(F)F)cc3)C21 (centres undefined)	3.08 µg/mL (≈ 10.2 µM)
